Data as given in patent EP0345629A2, “Condensed diazepinones, process for their preparation and medicaments containing them” (Dr. Karl Thomae GmbH, priority 1988, dated 1989).
Read-outs that look alike come from different tables or passages of the source. Values belong to the compound of their own block, whether it stands above or below them.

Experiments:
[1] = system: Speichelsekretion; experiment: Inhibition of pilocarpine-induced salivary secretion in the rat; type: in vivo, männliche THOM-Ratten; conditions: iv; urethane-anaesthetised rat, i.v.; 2 mg/kg Pilocarpin s.c.; dose reducing saliva volume by 50 %; read-out: -log ED50 Salivationshemmung (converted)
Description: 2. Speichelsekretionshemmende Wirkung an der Ratte
Nach Lavy und Mulder (Arch. int. Pharmacodyn. 178, 437-445, (1969)) erhielten mit 1,2 g/kg Urethan narkotisierte männliche THOM-Ratten steigende Dosen der Substanz i.v.. Die Speichelsekretion wurde durch s.c. Gabe von 2 mg/kg Pilocarpin ausgelöst. Der Speichel wurde mit Fließpapier aufgesaugt, die von ihm eingenommene Fläche alle 5 Minuten planimetrisch bestimmt. Die Dosis der Substanz, die das Speichelvolumen um 50% verminderte, wurde graphisch ermittelt. Ergebnisse siehe Tabelle 11.

[2] = system: vagale Bradykardie (M2); experiment: M1/M2 selectivity in the rat: inhibition of bradycardia evoked by electrical vagus stimulation; type: in vivo, männliche THOM-Ratten; conditions: iv; for ED50: 5 min
Excerpt: (§1) 1. M1-/M2-Selektivität an der Ratte
(§2) Die Dosis der Substanzen, die entweder die vagale Bradykardie (M2) oder den Blutdruckanstieg (M,) um 50% verminderte, wurde graphisch ermittelt. Ergebnisse siehe Tabelle 11.

[3] = system: durch McN-A-343 verursachte Blutdruckanstieg (M,); experiment: M1/M2 selectivity in the rat: inhibition of blood pressure rise caused by McN-A-343; type: in vivo, männliche THOM-Ratten; conditions: for ED50: iv, 5 min, rat, i.v., 5 min after injection, dose reducing the blood pressure rise after 0,3 mg/kg McN-A-343 i.v. (M1) by 50 %, read-out: -log ED50 Blutdruck (converted)
Excerpt: as §1, §2

[4] = system: Acetylcholinwirkung auf Herzfrequenz; experiment: Inhibition of the acetylcholine effect on heart rate in the anaesthetised guinea pig; type: in vivo, Meerschweinchen; conditions: for ED50: Cavia porcellus, 5 min, anaesthetised guinea pig, 10 µg/kg Acetylcholin 5 min after test substance, heart rate (ECG)
Description: (§3) 3. Hemmung der Acetylcholinwirkung auf Blase, Bronchien und Herzfrequenz des Meerschweinchens
(§4) Am narkotisierten Meerschweinchen wurden 5 Minuten nach Gabe der Prüfsubstanz 10 µg/kg Acetylcholin sowohl intravenös als auch gleichzeitig intraarteriell injiziert. Dabei wurde die Herzfrequenz durch extrakorporale Ableitung des EKG, der Ausatemwiderstand nach Konzett-Rößler und die Kontraktion der freigelegten Harnblase direkt registriert. Für die Hemmung der Acetylcholinwirkung an den untersuchten Organen wurden Dosis-Wirkungskurven aufgenommen und daraus -log EDso-Werte bestimmt. Ergebnisse siehe Tabelle III.

[5] = system: Acetylcholinwirkung auf Bronchien; experiment: Inhibition of the acetylcholine effect on bronchi (expiratory resistance, Konzett-Rößler) in the anaesthetised guinea pig; type: in vivo, Meerschweinchen; conditions: for ED50: Cavia porcellus, 5 min, anaesthetised guinea pig, 10 µg/kg Acetylcholin 5 min after test substance, expiratory resistance, read-out: -log ED50 Bronchien (converted)
Description: as §3, §4

[6] = system: Acetylcholinwirkung auf Blase; experiment: Inhibition of the acetylcholine effect on bladder contraction in the anaesthetised guinea pig; type: in vivo, Meerschweinchen; conditions: for ED50: Cavia porcellus, 5 min, anaesthetised guinea pig, 10 µg/kg Acetylcholin 5 min after test substance, bladder contraction, read-out: -log ED50 Blase (converted)
Description: as §3, §4

[7] = Solubility in water (remark in the synthesis example); type: physicochemical
[8] = rat, i.v., 5 min after injection, dose reducing vagal bradycardia (M2) by 50 %, read-out: -log ED50 Herz (converted)

SMILES: CN1CCN(CC(=O)N2c3ccccc3C(=O)Nc3cccnc32)CC1 [E, 5,11-Dihydro-11-[(4-methyl-1-piperazinyl)acetyl]-6H-pyrido[2,3-b][1,4]benzodiazepin-6-on, reference compound]
ED50 [1]: 0.603 µmol/kg

SMILES: CN1C2CCC1CC(OC(=O)C(CO)c1ccccc1)C2 (racemic) [F, Atropin, reference compound]
-log ED50 Herz ([2]; in vivo): 7,94 Mkg^-1
-log ED50 Blutdruck ([3]; in vivo): 7,34 Mkg^-1
-log ED50 Herz ([4]; in vivo): 7,70 Molkg^-1
-log ED50 Bronchien ([5]; in vivo): 7,96 Molkg^-1
-log ED50 Blase ([6]; in vivo): 7,03 Molkg^-1

Löslichkeit in Wasser [7]: löslich in Wasser
SMILES: CN(C)CCC1CCCCN1CCCC(=O)N1c2ccccc2C(=O)Nc2cccnc21 (stereo not drawn) [Beispiel 4, 5,11-Dihydro-11-[4-[2-[2-(dimethylamino)ethyl]-1-piperidinyl]-1-oxobutyl]-6H-pyrido[2,3-b][1,4]benzodiazepin-6-on]

SMILES: CCN(CC)CC1CCCCN1CCCC(=O)N1c2cc(C)ccc2C(=O)Nc2cccnc21 (stereo not drawn) [B, 11-[4-[2-[(Diethylamino)methyl]-1-piperidinyl]-1-oxobutyl]-5,11-dihydro-9-methyl-6H-pyrido[2,3-b][1,4]benzodiazepin-6-on]
ED50 [2, 8]: 0.0617 µmol/kg
ED50 [3]: 0.501 µmol/kg
ED50 [1]: 1.12 µmol/kg
ED50 [4]: 0.0708 µmol/kg
ED50 [5]: 0.151 µmol/kg
ED50 [6]: 0.759 µmol/kg

Löslichkeit in Wasser [7]: leicht löslich in Wasser
SMILES: CCN(CC)CC1COCCN1CCCC(=O)N1c2ccccc2C(=O)Nc2cccnc21 (stereo not drawn) [A, 11-[4-[3-[(Diethylamino)methyl]-4-morpholinyl]-1-oxobutyl]-5,11-dihydro-6H-pyrido[2,3-b][1,4]-benzodiazepin-6-on]
ED50 [2, 8]: 0.0513 µmol/kg
ED50 [3]: 0.55 µmol/kg
ED50 [1]: 1.1 µmol/kg
ED50 [4]: 0.0282 µmol/kg
ED50 [5]: 0.0708 µmol/kg
ED50 [6]: 1 µmol/kg

SMILES: O=C1Nc2cccnc2N(C(=O)CCCN2CCCCC2CN2CCCC2)c2ccccc21 (stereo not drawn) [C, 5, 11-Dihydro-11-[4-[2-[(1-pyrrolidinyl)methyl]-1-piperidinyl]-1-oxobutyl]-6H-pyrido[2,3-b][1,4]-benzodiazepin-6-on]
ED50 [2, 8]: 0.0468 µmol/kg
ED50 [3]: 0.219 µmol/kg
ED50 [1]: 1.66 µmol/kg
ED50 [4]: 0.0275 µmol/kg
ED50 [5]: 0.0513 µmol/kg
ED50 [6]: 0.316 µmol/kg

SMILES: CCN(CC)CC1CCCCN1CC(=O)N1c2ccccc2C(=O)Nc2cccnc21 (stereo not drawn) [D, 11-[[2-[(Diethylamino)methyl]-1-piperidinyl]acetyl]-5,11-dihydro-6H-pyrido[2,3-b][1,4]-benzodiazepin-6-on, reference compound]
ED50 ([2]; Rattus norvegicus, read-out: -log ED50 Herz): 0.38 µmol/kg
ED50 [3]: 2.34 µmol/kg
ED50 [1]: 10 µmol/kg

Löslichkeit in Wasser [7]: in Wasser schwer lösliches
SMILES: CCN(CC)CC1CCCCN1CCCC(=O)N1c2ccc(Br)cc2C(=O)Nc2cccnc21 (stereo not drawn) [Beispiel 7, 8-Brom-11-[4-[2-[(diethylamirio)methyl]-1-piperidinyl]-1-oxobutyl]-5,11-dihydro-6H-pyrido[2,3-b][1,4]-benzodiazepin-6-on]
